The test system of one data set is pLAI reporter virus. Put plainly: microbe, parasite or virus in culture. Type of data set: cell-based, HIV. As to conditions: read-out: RLUC CCM EC50.
The test system of the next data set is HIV-1 (IIIB). Kind of data set: microbe, parasite or virus in culture. As to conditions: HIV-1 (IIIB) in MT-4 cells, 5 days incubation, Cell Titer Glo, read-out: MT4 EC50. Type of data set: cell-based.
The subject of another data set is MT-4 cells. Put plainly: Cytotoxicity assay in MT-4 cells. As to conditions: uninfected MT-4 cells.
A short description of the next data set: in vitro. As to conditions: human, uninfected MT-4 cells.

pEC50: −log10 of the molar value. Like-named read-outs stand apart in the source and are kept apart here.

By pEC50 is commonly meant −log10 of the EC50, conventionally taken in molar units. Broadly, the CC50 is the concentration that lowers cell viability or growth by half. A lower CC50 goes with harm at low concentration.

Protocol for HIV-1 (IIIB): Compounds were tested in a high-throughput 384-well assay format for their ability to inhibit the replication of HIV-1 (IIIB) in MT-4 cells. Compounds were serially diluted (1:3) in DMSO on 384-well polypropylene plates and further diluted 200-fold into complete RPMI media (10% FBS, 1% P/S) using the Biotek Micro Flow and Labcyte ECHO acoustic dispenser. Each plate contained up to 8 test compounds, with negative (No Drug Control) and 5 μM AZT positive controls. MT-4 cells were pre-infected with 10 μL of either RPMI (mock-infected) or a fresh 1:250 dilution of HIV-1 IIIB concentrated virus stock. Infected and uninfected MT-4 cells were further diluted in complete RPMI media and added to each plate using a Micro Flow dispenser. After 5 days incubation in a humidified and temperature controlled incubator (37° C.), Cell Titer Glo (Promega) was added to the assay plates and chemiluminescence read using an Envision plate-reader.
Protocol for MT-4 cells: (§1) Compounds were serially diluted (1:3) in DMSO on 384-well polypropylene plates and further diluted 200-fold into complete RPMI media (10% FBS, 1% P/S) using the Biotek Micro Flow and Labcyte ECHO acoustic dispenser. […] Infected and uninfected MT-4 cells were further diluted in complete RPMI media and added to each plate using a Micro Flow dispenser. After 5 days incubation in a humidified and temperature controlled incubator (37° C.), Cell Titer Glo (Promega) was added to the assay plates and chemiluminescence read using an Envision plate-reader.
(§2) Assays were performed as above except uninfected MT-4 cells were added to each well containing test compound. In addition, 10 μM puromycin was added to the last column of each assay plate to assess a base level of cytotoxicity.
Protocol for in vitro: as §1, §2

With `CC1=NN(c2ccccc2)C2(CC[C@H](C)N3C[C@H]2n2cc(C(=O)NCc4c(F)cc(F)cc4F)c(=O)c(O)c2C3=O)C1` (single isomer, unassigned) [Example 90, (3′S,7′R)-12′-hydroxy-3′,5-dimethyl-1′,11′-dioxo-2-phenyl-N-(2,4,6-trifluorobenzyl)-1′,2,4,4′,5′,11′-hexahydro-3′H,7′H-spiro[pyrazole-3,6′-[2,7]methanopyrido[1,2-a][1,4]diazonine]-10′-carboxamide], the pEC50 in the data set on pLAI reporter virus (Human immunodeficiency virus 1, MT4, 72 h) was 8.89; in the data set on pLAI reporter virus, 8.92; in the data set with HIV-1 (IIIB), 8.49; with HIV-1 (IIIB) (Human immunodeficiency virus 1, IIIB, MT4, 120 h) it was 8.37. Besides, half-maximal cytotoxicity with MT-4 cells (CC50) was put at 20000 nM. In addition, the CC50 at 5 days in the data set “in vitro” turned out to be 22300 nM.

The values above are taken from patent publication US20250115620A1, “BRIDGED TRICYCLIC CARBAMOYLPYRIDONE COMPOUNDS AND USES THEREOF” (Gilead Sciences, Inc., priority 2022, published 2025).
